Test results taken from US20160220523A1 (GEORGETOWN UNIVERSITY, priority 2013, published 2016).

Legend:
Type in all cases: cell-based, murine
[1] = system: AMPK; test: AMPK phosphorylation in BV2 cells (Western blot); settings: compound C 0.5 hour, then fenofibrate 1 hour
Procedure: (§1) Cell lysate was collected for Western blotting analysis.
BV-2 cells (murine microglia) were maintained in Dulbecco's Modified Eagle Medium supplemented with 10% fetal bovine serum and antibiotics (penicillin, 100 U/mL, streptomycin 100 μg/mL). Antibiotics were omitted for the fenofibrate evaluation study.
(§2) AMPK is an energy sensor and can phosphorylate PGC-1α. It is plausible that AMPK phosphorylates PGC-1α and that PGC-1α then acts through positive feedback, binding to myocyte enhancer factor (MEF)-binding site to increase its own gene expression.

[2] = system: IL-1β; test: LPS-induced IL-1β expression in BV2 cells (RT-PCR)
Procedure: (§3) PGC-1α expression was determined by RT-PCR.
(§4) Then the cells were treated with 100 ng/mL LPS for 4 hrs. […] (**p<0.01 vs. control; ##p<0.001 vs. LPS).
as §1
(§5) MN9D cells were cultured in Dulbecco's Modified Eagle Medium (DMEM) supplemented with 10% fetal bovine serum, and 3.7 g/L sodium bicarbonate at 37° C., 5% carbon dioxide. BV-2 cells (murine microglia) were maintained in DMEM supplemented with 10% fetal bovine serum and antibiotics (penicillin, 100 U/mL, streptomycin […]). Antibiotics were omitted for the fenofibrate evaluation study.
as §2

[3] = system: PGC-1α; test: PGC-1α expression in LPS-treated BV2 cells (RT-PCR); settings: GW6471 0.25-2 μM 0.5 hrs, 20 μM fenofibrate 18 hrs, 100 ng/mL LPS 4 hrs
Procedure: as §3, §4, §5

SMILES	AMPK phosphorylation under fenofibrate [1]	effect on fenofibrate mediated anti-inflammation (IL-1β gene expression) ([2]; Compound C 0.5 hour, then fenofibrate overnight, LPS)	effect on fenofibrate mediated PGC-1α upregulation [3]	effect on fenofibrate mediated anti-inflammatory effects (IL-1β mRNA) ([2]; GW6471 0.25-2 μM 0.5 hrs, 20 μM fenofibrate 18 hrs, 100 ng/mL LPS 4 hrs)
c1cc(-c2cnn3cc(-c4ccc(OCCN5CCCCC5)cc4)cnc23)ccn1 [compound C]	concentration-dependent inhibitory effect	weakened the anti-inflammatory effects of fenofibrate		
CCC(=O)NC[C@H](Cc1ccc(OCCc2nc(-c3ccccc3)oc2C)cc1)N/C(C)=C\C(=O)c1ccc(C(F)(F)F)cc1 [GW6471]			fails to suppress	fails to suppress
